What all share (type): cell-based
Set-up in all cases: host or cells: CHO cells, stably transfected

Test [1] addresses T1, M5 muscarinic receptor (Homo sapiens, UniProt P08912).
T1 sequence (P08912 1-532): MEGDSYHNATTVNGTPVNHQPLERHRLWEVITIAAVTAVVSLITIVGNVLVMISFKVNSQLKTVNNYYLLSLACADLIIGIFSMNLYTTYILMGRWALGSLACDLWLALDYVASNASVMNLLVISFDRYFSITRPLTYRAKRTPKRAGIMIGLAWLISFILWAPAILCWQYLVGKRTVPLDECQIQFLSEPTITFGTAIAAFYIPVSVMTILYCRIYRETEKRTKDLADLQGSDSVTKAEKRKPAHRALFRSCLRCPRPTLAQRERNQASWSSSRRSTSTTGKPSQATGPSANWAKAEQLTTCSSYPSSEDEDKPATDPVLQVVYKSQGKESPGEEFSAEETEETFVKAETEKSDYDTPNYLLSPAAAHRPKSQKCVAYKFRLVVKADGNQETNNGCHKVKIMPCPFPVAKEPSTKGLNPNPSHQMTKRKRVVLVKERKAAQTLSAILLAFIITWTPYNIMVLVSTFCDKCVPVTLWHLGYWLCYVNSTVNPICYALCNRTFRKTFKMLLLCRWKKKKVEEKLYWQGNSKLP
The experiment in a line: stimulation of cAMP, M5 CHO cells (M5Gs). The following applies: for E′MAX / τ / Δlog(τ/KA) / RAi: M5Gs (↑cAMP); for E′MAX / τ: Table 8; for Δlog(τ/KA): Table 8, to carbachol; for RAi: Table 8, relative to carbachol. On the procedure: (§1) To determine level of cAMP, cells in suspension were pre-incubated for 1 h with 0.4 μM [^3H]adenine, washed, and incubated for 10 min in the presence of isobutylmethylxanthine and 10 μM forskolin. […] Incubation was ended by addition of 0.2 ml of 2.5 M HCl to the samples. Samples were applied to alumina columns (1.5 g of alumina per column), washed with 2 ml ammonium acetate (pH=7.0) and eluted from columns with 4 ml ammonium acetate and measured by liquid scintillation spectrometry. […] The incubation was stopped by addition of 0.5 ml of chloroform methanol HCl mixture (2:1:0.1). After separation of water and organic phases, 0.6 ml of water phase was applied to Dowex columns (1.5 g of Dowex per column), washed by 20 ml of 60 mM ammonium formate/5 mM sodium borate buffer and eluted from columns with 4 ml of 1M ammonium formate/0.1 formic acid buffer and measured by liquid scintillation spectrometry.
(§2) Measurements of the production of cAMP and inositol phosphates: Levels of second messengers cAMP and inositol phosphates were determined in radiochemical chromatography assays as described previously. To determine level of cAMP, cells in suspension were pre-incubated for 1 h with 0.4 μM [^3H]adenine, washed, and incubated for 10 min in the presence of isobutylmethylxanthine and 10 μM forskolin. […] Incubation was ended by addition of 0.2 ml of 2.5 M HCl to the samples. Samples were applied to alumina columns (1.5 g of alumina per column), washed with 2 ml ammonium acetate (pH=7.0) and eluted from columns with 4 ml ammonium acetate and measured by liquid scintillation spectrometry. […] For this purpose, new CHO cell lines stably expressing promiscuous G15 G-protein and M2 or M4 receptor were generated by transfection with pCMV/hygro vector and hygromycin selection. To determine the rate of formation of inositol phosphates IPX, suspended cells were pre-incubated with 0.1 μM [^3H]myo-inositol for 60 min, washed, and incubated with 10 mM LiCl for 15 min. […] The incubation was stopped by addition of 0.5 ml of chloroform methanol HCl mixture (2:1:0.1). After separation of water and organic phases, 0.6 ml of water phase was applied to Dowex columns (1.5 g of Dowex per column), washed by 20 ml of 60 mM ammonium formate/5 mM sodium borate buffer and eluted from columns with 4 ml of 1M ammonium formate/0.1 formic acid buffer and measured by liquid scintillation spectrometry.
(§3) For bi-phasic response, curves were inhibitory and stimulatory phase were fitted separately. Operational Model of Functional Agonism
(§4) [formula] where y is functional response at concentration of tested compound x, EMAX is maximal response of the system, KA is equilibrium dissociation constant and nH is slope factor. Eq. 5 was fitted to data from functional experiments. Eq. 5 was fitted to data by the two-step procedure described earlier. […] In the second step, Eq. 5 with EMAX fixed to the value determined in the first step was fitted to individual experimental data sets. Relative Intrinsic Activity
(§5) Muscarinic receptors are also able to stimulate non-preferential signalling pathways.

The target in test [2] is T2, M3 muscarinic receptor (Homo sapiens, UniProt P20309). The experiment in a line: inhibition of forskolin-stimulated cAMP, M3 CHO cells (M3Gi). The following applies: for Emax: CHO; for Emax / EC50 / τ / RAi / Kd: M3Gi (↓cAMP); for Emax / EC50 / τ / Kd: Table 8; for effect on forskolin-stimulated production of cAMP: M3, non-preferential response, in words; for RAi: Table 8, relative to carbachol; for Kd: read-out: pKA (converted). On the procedure:
(§6) Since activation of phospholipase C (PLC) via M2 and M4 receptors is weak, cells were transferred with G15 G-protein to facilitate coupling.
as §1, §2, §3, §4, §5

For test [3], the target named is T3, M1 muscarinic receptor (Homo sapiens, UniProt P11229).
T3 sequence (P11229 1-460): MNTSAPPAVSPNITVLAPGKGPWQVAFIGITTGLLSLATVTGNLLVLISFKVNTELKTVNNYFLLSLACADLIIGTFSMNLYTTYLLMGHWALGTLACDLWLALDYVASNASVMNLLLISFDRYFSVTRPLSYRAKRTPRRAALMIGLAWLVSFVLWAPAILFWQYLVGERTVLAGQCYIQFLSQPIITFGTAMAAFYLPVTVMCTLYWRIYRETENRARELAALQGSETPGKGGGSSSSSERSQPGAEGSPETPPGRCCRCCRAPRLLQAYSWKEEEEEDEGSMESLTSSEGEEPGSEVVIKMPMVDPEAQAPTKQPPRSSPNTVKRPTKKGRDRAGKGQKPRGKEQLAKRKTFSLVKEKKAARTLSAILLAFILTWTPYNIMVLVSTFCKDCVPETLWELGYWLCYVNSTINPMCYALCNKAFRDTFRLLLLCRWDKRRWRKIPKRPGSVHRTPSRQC
The experiment in a line: inhibition of forskolin-stimulated cAMP, M1 CHO cells (M1Gi). The following applies: for Emax: CHO; for Emax / EC50 / τ / RAi / Kd: M1Gi (↓cAMP); for Emax / EC50 / τ / Kd: Table 8; for effect on forskolin-stimulated production of cAMP: M1, non-preferential response, in words; for RAi: Table 8, relative to carbachol; for Kd: read-out: pKA (converted). On the procedure: as §6, §1, §2, §3, §4, §5

In test [4] the target is T2, M3 muscarinic receptor. Briefly: stimulation of cAMP, M3 CHO cells (M3Gs). Here is the method: as §6, §1, §2, §3, §4, §5
Where [5] appears, read: M3Gs (↑cAMP), Table 8, relative to carbachol.

Entries after “also recorded” stand apart in the source; their conditions may differ.

T2 sequence (P20309 whole entry): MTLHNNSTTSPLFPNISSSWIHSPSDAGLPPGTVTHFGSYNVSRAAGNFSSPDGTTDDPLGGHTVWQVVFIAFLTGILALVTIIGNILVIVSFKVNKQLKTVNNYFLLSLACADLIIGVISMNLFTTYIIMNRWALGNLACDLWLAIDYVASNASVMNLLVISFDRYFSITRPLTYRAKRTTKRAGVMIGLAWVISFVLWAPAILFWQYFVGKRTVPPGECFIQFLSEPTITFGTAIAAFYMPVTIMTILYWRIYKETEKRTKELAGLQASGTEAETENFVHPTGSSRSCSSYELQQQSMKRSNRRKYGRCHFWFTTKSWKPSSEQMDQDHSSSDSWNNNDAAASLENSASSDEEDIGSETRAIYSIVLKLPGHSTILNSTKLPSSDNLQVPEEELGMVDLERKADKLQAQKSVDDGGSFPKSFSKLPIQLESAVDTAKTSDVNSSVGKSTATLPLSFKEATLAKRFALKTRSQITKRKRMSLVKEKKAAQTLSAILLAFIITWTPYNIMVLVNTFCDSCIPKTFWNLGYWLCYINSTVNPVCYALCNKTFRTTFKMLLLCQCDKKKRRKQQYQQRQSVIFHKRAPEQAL

In the case of `C[N+](C)(C)CCOC(N)=O` [carbachol, reference compound], in test [1] (M5, micromolar concentrations, in words), the “increase of cAMP level” value is reported as “at micromolar concentrations it stimulated cAMP production; also recorded: increased cAMP level at micromolar concentrations”. Moreover, in test [1], the “E′MAX” value was 1.23 ± 0.03 fold increase, the τ is on record as 0.10 ± 0.02 and the “Δlog(τ/KA)” value is 0.

The term Emax denotes the size of the effect at its maximum, as opposed to the concentration needed. In general, EC50 refers to the concentration at which the effect is half-maximal. Lower therefore signals an effect from little substance. For the molecule `C[N+]1(Cc2cccs2)CC=CCC1.[I-]` (centres unmarked) [Compound 7A, 1-methyl-1-[(thiophen-2-yl)methyl]-1,2,3,6-tetrahydropyridin-1-ium iodide], in test [2], the Emax was found to be 16 ± 1%, the “effect on forskolin-stimulated production of cAMP” value (“effect” below) was “inhibited cAMP production”, the EC50 was 8.71 µM and the τ is given as 0.22 ± 0.02. For the same molecule, in test [2], the RAi entry is “+inf” and the Kd was 10 µM. In test [3], the Emax is 30 ± 3%, the “effect” value was “inhibited cAMP production”, the EC50 is 7.94 µM and the τ is given as 0.52 ± 0.05. Besides, in test [3], the RAi entry is “+inf” and the Kd was 12.6 µM. In test [1], this molecule had an RAi of 0. In addition, the RAi in test [4] (setting [5]) worked out at 0.

Regarding `O=C1CCCN1CC#CCN1CCCC1` [oxotremorine, reference compound], in test [1], the concentration for a half-maximal effect (EC50) is 3.8 µM, the Kd is 3.98 µM, the “E′MAX” value was 1.22 ± 0.03 fold increase and the τ is given as 0.09 ± 0.02. In test [1], the RAi came out at 6.62 ± 0.58 and the “Δlog(τ/KA)” value is given as −0.82 ± 0.08. Moreover, in test [4], the concentration for a half-maximal effect (EC50) was 2.63 µM, the “E′MAX” value is 1.9 ± 0.1 fold increase, the Kd was 3.98 µM and the RAi worked out at 4.23 ± 0.28. Besides, in test [4], the “Δlog(τ/KA)” value is reported as −0.63 ± 0.06 and the τ amounted to 0.48 ± 0.05.

As to `C1=CCN(Cc2cccs2)CC1.Cl` [Compound 6A, 1-[(thiophen-2-yl)methyl]-1,2,3,6-tetrahydropyridin-1-ium chloride], in test [2], the Emax stood at 13 ± 1%, the “effect” value is listed as “inhibited cAMP production”, the EC50 was 7.76 µM and the τ came to 0.17 ± 0.02. Further, in test [2], the RAi entry was “+inf” and the Kd is 10 µM. For the same molecule, in test [3], the Emax was determined as 26 ± 2%, the “effect” value is “inhibited cAMP production”, the EC50 was 11.7 µM and the τ was 0.42 ± 0.04. In test [3], the RAi result is “+inf” and the Kd is 15.8 µM. In test [1], this molecule registered an RAi of 0. Moreover, in test [4] (setting [5]), the RAi is given as 0.

(Values after patent US11591323B2, “Muscarinic agonists as non-steroidal and non-opioid analgesics and methods of use thereof” (Barry University, priority 2019, dated 2023).)
